In US20100273722A1, “MODIFIED MINIATURE PROTEINS” (Yale University, priority 2007, published 2010):

Experiment: Sedimentation equilibrium analytical ultracentrifugation of aPP variants, monomer-n-mer fit (self-association)
Format: physicochemical
Conditions: for n (stoichiometry of the self-associated complex): monomer-n-mer fit; for n (stoichiometry of the self-associated complex) / lnKA when n = 4 / % monomer at 30 μM: 25° C.; for lnKA when n = 4: monomer-tetramer; for Kd (self-association, tetramer): n = 4, 25° C., calculated from ln KA; for % monomer at 30 μM: 30 μM peptide
Method: Analytical ultracentrifugation experiments were performed using peptide solutions prepared in Tris.Cl buffer (25 mM Tris base, 50 mM NaCl, (pH 8.0)) at the appropriate concentrations (5 micromolar to 200 micromolar). Samples were then centrifuged to equilibrium at 25° C. at 42,000, 50,000, and 60,000 rpm. Data were collected with a 0.001 cm step size and successive scans were initiated at 2 h intervals. Samples were judged to have reached equilibrium when the radial concentration gradient remained unchanged over three successive scans using the Match module of Heteroanalysis software v1.1.19. The solvent density (ρ, rho) and partial specific volume ( ν, nu) were calculated using the Sedimentation Interpretation Program “Sednterp” software v1.08.
The data for each peptide (multiple concentrations at three speeds) was first fit globally to an equation describing the sedimentation of an ideal species of molecular weight Mn (Eq. 1) using Heteroanalysis software v1.1.19:
where C represents the concentration of the sedimenting species at distances r and r0 cm from the center of rotation; ν (nu) is the partial specific volume of the sedimenting species in cc/g; ρ (rho) is the density of the supporting buffer in g/cc; ω (omega) is the angular velocity of the rotor (radians/s); Mn is the “molar” molecular weight of sedimenting species (g/mol); R is the universal gas constant (8.315×10^7 ergs K^−1 mol^−1) and T is the temperature in degrees Kelvin.
In order to quantify this self-association, the data for each peptide was next fit globally to a monomer-n-mer equilibrium model using Eq. 2:
where n is the stoichiometry of the self-associated complex. Errors were calculated for n and lnKA using f-statistics to two standard deviations.
Samples were prepared in PBS buffer and centrifuged at speeds of 42,000 (41), 50,000 (42), or 60,000 RPM (43) at 25° C. Experimental data are shown as points; lines indicate the best fit to a monomer-n-mer model described by Eq. 2.

## GPSQPTAPGDDAPVEDLIRFYDNLQQYLNVVTRHRY [aPP^Y7A]
  n (stoichiometry of the self-associated complex): 3.77
  lnKA when n = 4: when n = 4 26.28
  Kd (self-association, tetramer): 3.9×10^−12 M^3

## GPSQPTAPGDDAVPEDLIRFYDNLQQYLNVVTRHRY [aPP^Y7AP13VV14P]
  % monomer at 30 μM: 90%
  n (stoichiometry of the self-associated complex): 4.48
  lnKA when n = 4: when n = 4 27.92
  Kd (self-association, tetramer): 7.5 × 10^−13 M^3

## aPP^Y7AT6E: SEQ ID NO: 8, CPSQPEAPGDDAPVEDLIRFYDNLQQYLNVVTRHRY (Table 1 prints GPSQPE...)
  % monomer at 30 μM: 79%
  n (stoichiometry of the self-associated complex): 3.88
  Kd (self-association, tetramer): 2.0 × 10^−13 M^3

## GPSQPTAPGDDAPVEDLIRFYDNLRQYLNVVTRHRY [aPP^Y7AQ25R]
  % monomer at 30 μM: 78%
  n (stoichiometry of the self-associated complex): 4.06
  lnKA when n = 4: when n = 4 29.34
  Kd (self-association, tetramer): 1.8 × 10^−13 M^3

## GPSQPTYPGDDAPVEDLIRAYDNLQQYLNVVTRHRY [aPP^F20A]
  n (stoichiometry of the self-associated complex): 3.87
  lnKA when n = 4: when n = 4 23.29
  Kd (self-association, tetramer): 7.6×10^−11 M^3
